The text below walks through data of patent US4518606A, “Pharmaceutical compositions” (Beecham Group Limited, priority 1979, dated 1985).

Assay type in all cases: in vivo
The test system of data set [1] is rats. The experiment in a line: sub-acute toxicity, intramuscular, 2 weeks, male and female rats. Particulars: 150 mg/kg (5 ml/kg of 3% solution). How it is done:
Over a period of 2 weeks, 10 male rats and female rats receive 150 mg/kg of benzyl alcohol, that is to say 5 ml/kg of 3% aqueous solution by the intramuscular route. […] Within the context of the anatomopathological examination, the liver, kidneys, spleen, lungs, suprarenals, testicles and ovaries are normal.

The subject of data set [2] is rats. The experiment in a line: acute toxicity, intramuscular, rats. Conditions: 750 mg/kg in 3% solution (25 ml/kg). As for the experimental part:
(§1) No mortality is observed in mice or rats treated at the rate of 750 mg/kg of benzyl alcohol in 3% solution (viz 25 ml/kg of solution) by the intramuscular route.

In the next data set the test system is mice. The experiment in a line: acute toxicity, intramuscular, mice. Conditions: 750 mg/kg in 3% solution (25 ml/kg). How it is done: as §1

Take `OCc1ccccc1` [benzyl alcohol]: in the data set on rats [1], the abnormal symptoms entry is “No abnormal symptom appears”; the “anatomopathological examination (liver, kidneys, spleen, lungs, suprarenals, testicles and ovaries)” value was “normal”; the haematological variations result was “within the limits of physiological variations”; the “variations in blood and urine biochemistry” value is “within the limits of physiological variations”. The variations in weight entry in the data set on rats [1] is listed as “within the limits of physiological variations”. Further, the mortality result in the data set on rats [2] was “No mortality”. The mortality entry in the data set on mice was “No mortality”.
